In US10660874B2, “Ecteinamycin, compositions and uses thereof” (Wisconsin Alumni Research Foundation, priority 2014, dated 2020):
In brackets after ≈: the same amount, converted by molar mass.

Key:
E. coli (ATCC #25922) = test: MIC, dilution antimicrobial susceptibility test; assay type: cell-based; details: Escherichia coli, ATCC25922, 33° C., 18 h
Experimental: (§1) Ecteinamycin was tested for antibacterial activity against C. difficile (ATCC BAA-1870), MRSA (ATCC #33591), MSSA (ATCC #29213), E. coli (ATCC #25922), P. aeruginosa (ATCC #27853), and VRE (ATCC), and MICs were determined using a dilution antimicrobial susceptibility test for aerobic (MRSA, MSSA, E. coli, P. aeruginosa, and VRE) and anaerobic (C. difficile) bacteria. Ecteinamycin was dissolved in DMSO, serially diluted to 10 concentrations (0.0313-32 μg/mL), and tested in a 96-well plate. […] Ecteinamycin and vancomycin were tested in triplicate. Six untreated media controls were included on each plate. For MRSA, MSSA, E. coli, and P. aeruginosa, the plates were incubated at 33° C. for 18 h. For C. difficile, the plate was incubated at 36° C. for 48 h anaerobically and then read visually using a mirror apparatus. All manipulations to the plate were done inside the anaerobe chamber. The MIC was determined as the lowest concentration that inhibited visible growth.

[1] = system: P. aeruginosa (ATCC #27853); test: MIC, dilution antimicrobial susceptibility test; assay type: cell-based; details: Pseudomonas aeruginosa, ATCC27853, 33° C., 18 h
Experimental: as §1

MSSA (ATCC #29213) = test: MIC, dilution antimicrobial susceptibility test; assay type: cell-based, Methicillin-sensitive Staphylococcus aureus; details: Methicillin-sensitive Staphylococcus aureus (MSSA); 33° C., 18 h; read-out: MIC
Experimental: as §1

MRSA (ATCC #33591) = test: MIC, dilution antimicrobial susceptibility test; assay type: cell-based, Methicillin-resistant Staphylococcus aureus; details: Staphylococcus aureus, 18 h
Experimental: as §1

S. cerevisiae = test: MIC against S. cerevisiae; assay type: cell-based; details: Saccharomyces cerevisiae
[2] = system: C. difficile (ATCC BAA-1870); test: MIC, anaerobic dilution antimicrobial susceptibility test; assay type: cell-based; details: Clostridioides difficile
Experimental: as §1

E. coli deletion mutants = test: Chemical genomic profiling in E. coli deletion mutants; assay type: cell-based, Escherichia coli
Experimental: Chemical genomic profiling was also performed in Escherichia coli to further investigate the mechanism of action of ecteinamycin. Similar to the chemical genomic profiling with yeast, ecteinamcyin was screened against over 6,000 deletion mutant E. coli strains, genomic DNA was extracted, and mutant-specific DNA barcodes were amplified and sequenced by Illumina sequencing. Ecteinamycin sensitive and resistant mutants were determined by quantification of DNA-barcodes in order to provide a chemical genomic profile to aid in evaluating the mechanism of action (Table 7).

[3] = Pharmacokinetic study in mice, ecteinamycin in plasma; assay type: in vivo; details: female, FVB, mouse, oral 5 mg/kg vs retro-orbital IV 2.5 mg/kg, dose adjusted
Experimental: An Agilent 1100 LCMS system (ESI-MS positive mode) with a Phenomenex Kinetix C18 column (100×4.6 mm, 2.6 μm) at a flow rate of 0.5 mL/min was used for all analysis. The gradient was from 75% MeOH/25% 1 mM ammonium acetate in H2O to 93% MeOH/7% 1 mM ammonium acetate in H2O in 11 mins, then 93% MeOH/7% 1 mM ammonium acetate in H2O to 100% MeOH for 0.1 min and holding 100% MeOH for 3.9 mins.
A standard curve was constructed using known concentrations of ecteinamycin (1000, 500, 250, 125, 62.50, 31.25, 15.625, 7.8125, 3.90625 ng/mL) in blank human plasma. Linear regression analysis was performed on the peak areas, and the resulting linear equation was used to calculate the ecteinamycin concentrations of quality control (QC) standards of ecteinamycin in human plasma (800, 200, 25, 12.5 ng/mL). The limit of detection was determined to be 31.25 ng/mL, and the limit of quantification was determined to be 62.50 ng/mL.
Eight-to-nine-week-old FVB female mice weighing 20.5 to 25.6 g were used for all studies. […]
Ecteinamycin was formulated with polyethylene glycol (PEG) 300, 25 mM Tris (1:1), pH 8.9. […] Sample quantitation was determined by weighted (R^2) linear regression using a 9-point curve. […] The % oral bioavailability was calculated from the concentration of ecteinamycin (adjusted for dose) in plasma between oral and IV dose: [ecteinamycinoral]/[ecteinamycinIV]×100. […]

[4] = Lethality of intravenous injection in mice; assay type: in vivo; details: 5 mg/kg IV
Experimental: Eight-to-nine-week-old FVB female mice weighing 20.5 to 25.6 g were used for all studies. Animals were maintained in accordance with the American Association for Accreditation of Laboratory Care criteria. Animal studies were approved by the University of Wisconsin Animal Care Committee.
Ecteinamycin was formulated with polyethylene glycol (PEG) 300, 25 mM Tris (1:1), pH 8.9. Mice were treated orally at 5 mg/kg or by retro-orbital intravenous injection at 2.5 mg/kg. Retro-orbital intravenous injection at 5 mg/kg was lethal. After 30 mins and 1 h, approximately 400 μL of blood was collected from the chest cavity in BD microtainer tubes with lithium heparin. Blood was centrifuged at 10,000 rpm for 10 mins Fifty μL of supernatant was added to 200 μL of acetonitrile (containing 0.1% formic acid) in a new polypropylene tube, vortexed for 1 min, and centrifuged for 10 mins at 14,000 rpm at 4° C. One hundred μL was transferred to a 96 well polypropylene microplate, 100 μL of H2O was added, and the plate was covered and shaken for 1 min and placed in the autosampler for analysis. […] Sample quantitation was determined by weighted (R^2) linear regression using a 9-point curve. […] The % oral bioavailability was calculated from the concentration of ecteinamycin (adjusted for dose) in plasma between oral and IV dose: [ecteinamycinoral]/[ecteinamycinIV]×100. […]

## C=C1OC(=O)C(C(=O)CC2OC(C(C)C(O)C(CC)C(=O)C(C)(O)C3CCC(CC)(C4CCC(O)(C(C)OC)C(C)O4)O3)C(C)CC2C)=C1O (stereo not drawn) [ecteinamycin]
E. coli (ATCC #25922)
  MIC: 16 mg/L (≈ 22.6 µM)
[1]
  MIC: 8 mg/L (≈ 11.3 µM)
MSSA (ATCC #29213)
  MIC: 0.125 mg/L (≈ 0.176 µM)
MRSA (ATCC #33591)
  MIC: 0.125 mg/L (≈ 0.176 µM)
S. cerevisiae
  MIC: 8 mg/L (≈ 11.3 µM)
[2]; ATCCBAA1870
  MIC: ≤ 0.031 mg/L
[2]; ATCCBAA1870, 36° C., 48 h anaerobically
  MIC: ≤ 0.0313 mg/L
E. coli deletion mutants; acrA deletion mutant
  Fold Change in abundance relative to solvent control: 0.087
E. coli deletion mutants; acrB deletion mutant
  Fold Change in abundance relative to solvent control: 0.189
E. coli deletion mutants; atpA deletion mutant
  Fold Change in abundance relative to solvent control: 0.280
E. coli deletion mutants; atpF deletion mutant
  Fold Change in abundance relative to solvent control: 0.207
E. coli deletion mutants; csgE deletion mutant
  Fold Change in abundance relative to solvent control: 0.369
E. coli deletion mutants; dksA deletion mutant
  Fold Change in abundance relative to solvent control: 0.187
E. coli deletion mutants; fis deletion mutant
  Fold Change in abundance relative to solvent control: 0.416
E. coli deletion mutants; hupA deletion mutant
  Fold Change in abundance relative to solvent control: 0.518
E. coli deletion mutants; kdpD deletion mutant
  Fold Change in abundance relative to solvent control: 0.374
E. coli deletion mutants; ldcA deletion mutant
  Fold Change in abundance relative to solvent control: 0.341
E. coli deletion mutants; rpoS deletion mutant
  Fold Change in abundance relative to solvent control: 0.350
E. coli deletion mutants; sapB deletion mutant
  Fold Change in abundance relative to solvent control: 0.241
E. coli deletion mutants; sapD deletion mutant
  Fold Change in abundance relative to solvent control: 0.197
E. coli deletion mutants; trkA deletion mutant
  Fold Change in abundance relative to solvent control: 0.145
E. coli deletion mutants; ycdR deletion mutant
  Fold Change in abundance relative to solvent control: 0.287
E. coli deletion mutants; yhjK deletion mutant
  Fold Change in abundance relative to solvent control: 0.485
E. coli deletion mutants; yraP deletion mutant
  Fold Change in abundance relative to solvent control: 0.365
[3]; after 30 mins
  bioavailability at 30 min: 10.9%
[3]; after 1 h
  bioavailability at 1 h: 29.3%
[4]
  lethality of retro-orbital intravenous injection: lethal
